The results in this text go back to patent publication US8883789B2, “Piperazine derivatives and their use as positive allosteric modulators of mGluR5 receptors” (Boehringer Ingelheim International GmbH, priority 2011, dated 2014).

Each structure is given as a SMILES string.

T1 sequence (P41594 21-1212): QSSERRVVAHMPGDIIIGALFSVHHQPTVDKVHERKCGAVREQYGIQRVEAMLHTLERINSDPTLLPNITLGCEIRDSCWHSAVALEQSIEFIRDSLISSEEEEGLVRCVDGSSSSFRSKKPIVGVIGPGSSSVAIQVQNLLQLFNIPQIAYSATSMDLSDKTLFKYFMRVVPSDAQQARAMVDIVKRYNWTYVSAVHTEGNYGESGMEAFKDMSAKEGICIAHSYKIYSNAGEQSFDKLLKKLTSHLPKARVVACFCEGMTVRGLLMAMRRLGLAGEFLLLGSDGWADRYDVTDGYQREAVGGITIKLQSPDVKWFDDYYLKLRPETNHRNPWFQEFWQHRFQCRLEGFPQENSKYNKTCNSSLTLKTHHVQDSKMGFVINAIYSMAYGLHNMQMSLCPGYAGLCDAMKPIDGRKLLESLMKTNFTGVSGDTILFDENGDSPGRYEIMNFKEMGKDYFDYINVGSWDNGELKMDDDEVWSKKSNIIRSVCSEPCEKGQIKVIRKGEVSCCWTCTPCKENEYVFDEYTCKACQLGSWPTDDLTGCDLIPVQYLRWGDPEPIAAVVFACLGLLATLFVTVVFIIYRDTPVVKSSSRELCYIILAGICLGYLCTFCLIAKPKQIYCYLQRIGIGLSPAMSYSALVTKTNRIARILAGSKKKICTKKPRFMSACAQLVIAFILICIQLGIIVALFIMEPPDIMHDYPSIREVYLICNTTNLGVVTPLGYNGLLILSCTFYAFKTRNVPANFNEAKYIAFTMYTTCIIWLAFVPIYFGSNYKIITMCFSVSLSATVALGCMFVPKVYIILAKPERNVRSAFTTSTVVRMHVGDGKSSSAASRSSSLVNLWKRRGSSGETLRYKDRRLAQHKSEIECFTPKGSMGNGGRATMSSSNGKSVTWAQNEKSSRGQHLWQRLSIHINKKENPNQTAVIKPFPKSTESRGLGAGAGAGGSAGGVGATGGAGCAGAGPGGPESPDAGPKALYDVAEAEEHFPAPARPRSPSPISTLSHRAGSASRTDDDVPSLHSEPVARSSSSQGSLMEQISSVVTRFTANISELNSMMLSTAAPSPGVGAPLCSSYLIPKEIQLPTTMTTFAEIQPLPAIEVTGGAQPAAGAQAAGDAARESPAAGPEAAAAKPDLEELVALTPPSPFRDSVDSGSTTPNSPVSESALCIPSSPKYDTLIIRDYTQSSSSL

This experiment addresses T1, human recombinant mGluR5 (Homo sapiens, UniProt P41594).
T1 construct: expressed in transfected cells; hygromycin and geneticin selection
The experiment is described as follows: positive modulation of mGluR5, calcium based FLIPR assay. As to conditions: HEK 293 cell line expressing human recombinant mGluR5; Ca2+ peak height after glutamate at approximately 5% basal stimulation; nonlinear regression. Summed up:
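HEK293 cells with tetracycline-free induction, Calcium-4 dye-loaded in Ringer pH 7.4. Compound added 5 min before glutamate at ~5% of maximal effect, 1% DMSO. EC50 from peak Ca2+ fluorescence, normalized to basal glutamate (100%) and 10 μM CDPPB (200%), via nonlinear regression.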
The term EC50 denotes the concentration giving half of the maximal effect. As for `COc1cccc(C(=O)N2CCN(C(=O)c3nnn(-c4cccc(C)c4)n3)CC2C)n1` (stereo not shown) [Example 243, (6-Methoxy-pyridin-2-yl)-[2-methyl-4-(2-m-tolyl-2H-tetrazole-5-carbonyl)-piperazin-1-yl]-methanone], the concentration giving a half-maximal response (EC50) came to 365 nM. The value for `COc1cccc(C(=O)N2CCN(C(=O)c3ncn(-c4ccc(F)c(C)c4)n3)C(C)(C)C2)n1` [Example 161] was 316 nM; that for `COc1ccc2c(C)c(C(=O)N3CCN(C(=O)c4ncn(-c5cccc(Cl)c5)n4)C(C)(C)C3)oc2c1` [Example 47] was 184 nM; that for `O=C(c1cccc(Cl)c1)N1CCN(C(=O)c2ncn(-c3ccccc3)n2)C2(CCCC2)C1` [Example 309] was 145 nM. The figure for `CCCOc1cccc(C(=O)N2CCN(C(=O)c3ncn(-c4cccc(Cl)c4)n3)C(C)(C)C2)c1` [Example 20] is 53 nM; for `COc1ccc2c(OC)nc(C(=O)N3CCN(C(=O)c4ncn(-c5cccc(Cl)c5)n4)C(C)(C)C3)cc2c1` [Example 31] it is 160 nM; for `CC1CN(C(=O)c2ccc3ccn(C)c3c2)CCN1C(=O)c1ncn(-c2cccc(Cl)c2)n1` (stereo not shown) [Example 272] it is 350 nM.

For `COc1cccc(C(=O)N2CCN(C(=O)c3ncn(-c4cccc(C)c4)n3)C(C)C2)n1` (stereo not shown) [Example 296, [4-(6-Methoxy-pyridine-2-carbonyl)-2-methyl-piperazin-1-yl]-(1-m-tolyl-1H-[1,2,4]-triazol-3-yl)-methanone], the 50% effective concentration (EC50) is 269 nM. For the compound `CC(C)(C)c1cccc(C(=O)N2CCN(C(=O)c3ncn(-c4ccccc4)n3)C(C)(C)C2)c1` [Example 130], the EC50 stood at 31 nM. With `Cc1oc2ccc(Br)cc2c1C(=O)N1CCN(C(=O)c2ncn(-c3ccccc3)n2)C(C)(C)C1` [Example 100], the EC50 came out at 29 nM. `Cc1cccc(-n2cnc(C(=O)N3CCN(C(=O)c4cccc(C5CC5)n4)CC3(C)C)n2)c1` [Example 181]: the EC50 worked out at 19 nM. Take `COc1cccc(C(=O)N2CCN(C(=O)c3ncn(-c4cccc(C)c4)n3)CC2C)n1` (stereo not shown) [Example 244]: the EC50 was determined as 216 nM.

On to `CC1(C)CN(C(=O)c2cccc(C(F)(F)F)n2)CCN1C(=O)c1ncn(-c2ccccc2)n1` [Example 101], for which the 50% effective concentration (EC50) is 52 nM. Consider `CCn1cc(-c2cccc(C(=O)N3CCN(C(=O)c4ncn(-c5cccc(Cl)c5)n4)C(C)(C)C3)n2)cn1` [Example 92], for which the concentration for a half-maximal effect (EC50) stood at 119 nM. Consider `Cc1c(C(=O)N2CCN(C(=O)c3ncn(-c4cccc(Cl)c4)n3)C(C)C2)oc2c(F)cccc12` (stereo not shown) [Example 284], for which the EC50 is 858 nM.

`COc1ccc2oc(C)c(C(=O)N3CCN(C(=O)c4ncn(-c5cccc(C)c5)n4)C(C)C3)c2c1` (stereo not shown) [Example 290]: the EC50 came to 272 nM. As to `COc1cc(Cl)cc(C(=O)N2CCN(C(=O)c3nnn(-c4ccccc4)n3)C(C)(C)C2)n1` [Example 165], the EC50 was 25 nM. On to `Cc1cccc(-n2cnc(C(=O)N3CCN(C(=O)c4cc(Br)c(Br)o4)[C@@H](C)C3)n2)c1` [Example 255, (S)-[4-(4,5-Dibromo-furan-2-carbonyl)-3-methyl-piperazin-1-yl]-(1-m-tolyl-1H-[1,2,4]triazol-3-yl)-methanone], for which the EC50 is 152 nM.

For `CC1(C)CN(C(=O)c2ccnc(C(F)(F)F)c2)CCN1C(=O)c1ncn(-c2cccc(Cl)c2)n1` [Example 88], the EC50 came to 375 nM.

With `C[C@H]1CN(C(=O)c2ncn(-c3cccc(F)c3)n2)CCN1C(=O)c1cc(Br)c(Br)o1` [Example 256, (S)-[4-(4,5-Dibromo-furan-2-carbonyl)-3-methyl-piperazin-1-yl]-[1-(3-fluoro-phenyl)-1H-[1,2,4]triazol-3-yl]-methanone], the 50% effective concentration (EC50) amounted to 205 nM. The figure for `Cc1oc2ccc(Br)cc2c1C(=O)N1CCN(C(=O)c2ncn(-c3cccc(F)c3)n2)C(C)(C)C1` [Example 1, [4-(5-Bromo-2-methyl-benzofuran-3-carbonyl)-2,2-dimethyl-piperazin-1-yl]-[1-(3-fluoro-phenyl)-1H-[1,2,4]triazol-3yl]-methanone] is 39 nM; for `COc1cccc(C(=O)N2CCN(C(=O)c3ncn(-c4cccc(Cl)c4)n3)CC2(C)C)n1` [Example 257, {4-[1-(3-Chloro-phenyl)-1H-[1,2,4]triazole-3-carbonyl]-2,2-dimethyl-piperazin-1-yl}-(6-methoxy-pyridin-2-yl)-methanone] it is 1100 nM; for `CC1(C)CN(C(=O)c2cccc(COc3ccccc3)c2)CCN1C(=O)c1ncn(-c2cccc(Cl)c2)n1` [Example 74] it is 170 nM. The value for `CC(C)Oc1cccc(C(=O)N2CCN(C(=O)c3ncn(-c4ccccc4)n3)C(C)(C)C2)c1` [Example 126] was 91 nM; that for `CC1CN(C(=O)c2cccc(-c3ccn(C)n3)c2)CCN1C(=O)c1ncn(-c2cccc(Cl)c2)n1` (stereo not shown) [Example 269] was 447 nM; that for `COc1cccc(C(=O)N2[C@H](C)CN(C(=O)c3ncn(-c4cccc(C)c4)n3)C[C@@H]2C)n1` [Example 263, (2R*,6S*)-1-[(6-Methoxypyridin-2-yl)carbonyl]-2,6-dimethyl-4-{[1-(3-methylphenyl)-1H-[1,2,4]-triazol-3-yl]carbonyl}piperazine] was 251 nM. For the compound `CC1(C)CN(C(=O)c2cccc(C(F)(F)F)c2)CCN1C(=O)c1ncn(-c2ccccc2)n1` [Example 98], the EC50 stood at 32 nM. `CC1(C)CN(C(=O)c2cc3ccccc3c(C3CC3)n2)CCN1C(=O)c1nnn(-c2ccccc2)n1` [Example 205]: the concentration for a half-maximal effect (EC50) amounted to 42 nM. As to `CC1(C)CN(C(=O)c2ccccc2)CCN1C(=O)c1ncn(-c2ccccc2)n1` [Example 112], the EC50 worked out at 770 nM. The figure for `CC1(C)CN(C(=O)c2cccc(C(F)(F)F)n2)CCN1C(=O)c1ncn(-c2cccc(Cl)c2)n1` [Example 13] is 22 nM; for `CC1(C)CN(C(=O)c2cccc(C3CC3)n2)CCN1C(=O)c1ncn(-c2cccc(F)c2)n1` [Example 184] it is 33 nM; for `Cc1c(C(=O)N2CCN(C(=O)c3ncn(-c4cccc(Cl)c4)n3)CC2C)oc2ccccc12` (stereo not shown) [Example 228] it is 404 nM.

As for `CCC1CN(C(=O)c2ncn(-c3cccc(F)c3)n2)CCN1C(=O)c1cccc(OC)n1` (stereo not shown) [Example 259], the half-maximal effective concentration (EC50) turned out to be 231 nM.

In the case of `COc1cccc(C(=O)N2CCN(C(=O)c3ncn(-c4cccc(C)c4)n3)C(C)(C)C2)n1` [Example 7, [4-(6-Methoxy-pyridine-2-carbonyl)-2,2-dimethyl-piperazin-1-yl]-[1-m-tolyl-1H-[1,2,4]triazol-3yl]-methanone], the EC50 turned out to be 50 nM. As for `Cc1cc(-n2cnc(C(=O)N3CCN(C(=O)c4c(C)oc5ccccc45)CC3(C)C)n2)ccc1F` [Example 163], the EC50 was 1510 nM.

For `CC1(C)CN(C(=O)c2nccc(C(F)(F)F)n2)CCN1C(=O)c1ncn(-c2cccc(Cl)c2)n1` [Example 84], the 50% effective concentration (EC50) turned out to be 107 nM. The figure for `COc1cccc(C(=O)N2CCN(C(=O)c3ncn(-c4cccc(C)c4)n3)C[C@H]2C)n1` [Example 251, (R)-(6-Methoxy-pyridin-2-yl)-[2-methyl-4-(1-m-tolyl-1H-[1,2,4]-triazole-3-carbonyl)-piperazin-1-yl]-methanone] is 886 nM. The figure for `COc1cccc(C(=O)N2CCN(C(=O)c3ncn(-c4cccc(Cl)c4)n3)C[C@H]2C)n1` [Example 248, (R)-{4-[1-(3-Chloro-phenyl)-1H-[1,2,4]triazole-3-carbonyl]-2-methyl-piperazin-1-yl}-(6-methoxy-pyridin-2-yl)-methanone] is 169 nM; for `CC1(C)CN(C(=O)c2cccc(Cl)c2)CCN1C(=O)c1ncn(-c2cccc(F)c2)n1` [Example 190] it is 57 nM; for `CC1(C)CN(C(=O)c2cc(Br)c(Br)o2)CCN1C(=O)c1ncn(-c2ccccc2)n1` [Example 105] it is 64 nM. The value for `COc1cccc(C(=O)N2CCN(C(=O)c3nnn(-c4ccc(F)cc4)n3)C(C)(C)C2)n1` [Example 200] was 132 nM; that for `COc1cccc(C(=O)N2CCN(C(=O)c3ncn(-c4ccccc4)n3)C(C)C2)n1` (stereo not shown) [Example 298] was 619 nM; that for `COc1cccc(C(=O)N2C[C@@H](C)N(C(=O)c3ncn(-c4cccc(F)c4)n3)[C@@H](C)C2)n1` [Example 303] was 215 nM. As to `CC1(C)CN(C(=O)c2cc(Cl)ccc2F)CCN1C(=O)c1ncn(-c2ccccc2)n1` [Example 155], the EC50 was found to be 134 nM. The value for `Cc1cc(C)cc(C(=O)N2CCN(C(=O)c3ncn(-c4ccccc4)n3)C(C)(C)C2)c1` [Example 113] was 76 nM. The value for `COc1cc(C(=O)N2CCN(C(=O)c3ncn(-c4ccccc4)n3)C(C)C2)ccc1C` (stereo not shown) [Example 292] was 1210 nM; that for `CC1(C)CN(C(=O)c2cccc(C(F)(F)F)c2)CCN1C(=O)c1ncn(-c2cccc(Cl)c2)n1` [Example 14] was 25 nM. As to `Cc1c(C(=O)N2CCN(C(=O)c3ncn(-c4ccccc4)n3)C(C)(C)C2)n(C)c2ccccc12` [Example 110], the concentration giving a half-maximal response (EC50) worked out at 142 nM. Take `CC(C)COc1cccc(C(=O)N2CCN(C(=O)c3ncn(-c4cccc(Cl)c4)n3)C(C)C2)c1` (stereo not shown) [Example 282]: the half-maximal effective concentration (EC50) was found to be 597 nM. The figure for `CCCOc1cccc(C(=O)N2CCN(C(=O)c3ncn(-c4cccc(Cl)c4)n3)CC2C)c1` (stereo not shown) [Example 219] is 356 nM; for `Cc1cccc(-n2cnc(C(=O)N3CCN(C(=O)c4c(C)oc5ccccc45)CC3(C)C)n2)c1` [Example 10] it is 95 nM; for `COc1ccc(C(=O)N2CCN(C(=O)c3ncn(-c4ccccc4)n3)C(C)(C)C2)o1` [Example 132] it is 1810 nM.
